The test system of the data set is treatment-naïve DME eyes. Format: in vivo, human. The protocol:
A study was conducted to evaluate suprachoroidal CLS-TA in combination with intravitreal aflibercept, compared to aflibercept monotherapy for DME. SCS injections target chorioretinal tissues more directly than intravitreal injections while limiting exposure to the anterior chamber, thereby offering potential safety, efficacy, and durability advantages. The study was a Phase 2, multicenter, randomized, double-masked, controlled, 24-week study in treatment-naïve DME eyes (eligibility: CST >300 μm; 20-70 ETDRS letters) randomized 1:1 to CLS-TA+aflibercept or aflibercept monotherapy. Patients in the combination arm (n=36) received CLS-TA and aflibercept at baseline & week 12 ([…]). Patients in the monotherapy arm (n=35) received aflibercept at baseline, W4, W8 and […]. […] The study is referred to as the TYBEE study in some embodiments herein.

On to aflibercept, for which, where the note is “W4”, the “eyes with macular edema resolved (<300 μm)” value turned out to be 21%. For the same substance, the “mean CST change” value (W24) is −176 μm. Also, where the note is “W24, per protocol arms”, the “gain in BCVA letters from baseline” value is listed as “+13.5 letters”. Moreover, the “mean PRN aflibercept treatments” value (at W16 & W20) was 0.7. For the same substance, for the setting “in vivo”, the cataract observed was determined as 2.9%, the “elevated IOP observed” value is given as 2.9% and the “treatment-related serious AEs” value is recorded as “No treatment-related serious AEs were observed”. The “average number of treatments” value (through week 24) is 4.7.

For the origin of these results see patent US20190269702A1, “COMPOSITIONS AND METHODS FOR TREATING NONINFECTIOUS UVEITIS” (CLEARSIDE BIOMEDICAL, INC., priority 2018, published 2019).
